Test results taken from patent publication US20170304388A1, “NEW INDICATION OF CARDIOVASCULAR DRUGS FOR PREPARATION OF CANCER INHIBITION PHARMACEUTICAL COMPOSITION” (LAUNX BIOMEDICAL CO., LTD., priority 2014, published 2017).
Read-outs that look alike come from different tables or passages of the source.

Columns and labels:
Assay type in all cases: cell-based
[1] = test system: A375 (Amelanotic Melanoma); experiment: Cell viability analysis (WST-1), A375; conditions: Homo sapiens, A-375, 72 h
[2] = test system: HCT116 (Colorectal Carcinoma); experiment: Cell viability analysis (WST-1), HCT116; conditions: Homo sapiens, HCT-116, 72 h
[3] = test system: HepG2 (Hepatocellular Carcinoma); experiment: Cell viability analysis (WST-1), HepG2; conditions: Homo sapiens, HepG2, 72 h
[4] = test system: HeLa (Cervix Adenocarcinoma); experiment: Cell viability analysis (WST-1), HeLa; conditions: Homo sapiens, HeLa, 72 h
[5] = test system: AGS (Gastric Adenocarcinoma); experiment: Cell viability analysis (WST-1), AGS; conditions: 72 h
[6] = test system: H1650 (Lung Adenocarcinoma); experiment: Cell viability analysis (WST-1), H1650; conditions: Homo sapiens, NCI-H1650, 72 h
[7] = test system: MKN-45 (Gastric Adenocarcinoma); experiment: Cell viability analysis (WST-1), MKN-45; conditions: Homo sapiens, MKN-45, 72 h
[8] = test system: TSGH-8301 (Urinary Bladder Carcinoma); experiment: Cell viability analysis (WST-1), TSGH-8301; conditions: 72 h, Table 4, repeated experiments, drug 10 μM, WST-1, read-out: survival rate (viability) of cancer cells, TSGH-8301
[9] = test system: A549 (Lung Adenocarcinoma); experiment: Cell viability analysis (WST-1), A549; conditions: Homo sapiens, A549, 72 h
[10] = test system: LoVo (Colorectal Adenocarcinoma); experiment: Cell viability analysis (WST-1), LoVo; conditions: Homo sapiens, LoVo, 72 h
T24 = experiment: Cell viability analysis (WST-1), T24; conditions: Homo sapiens, T-24, 72 h, Table 4, repeated experiments, drug 10 μM, read-out: survival rate (viability) of cancer cells, T24
Method in brief: (§1)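 3000 cells/well; drug 10 μM, 72 h; diluted WST-1 (medium:stock 9:1), 37° C, 30–90 min; OD450 nm read, survival rate calculated.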

Hep3B = experiment: Cell viability analysis (WST-1), Hep3B; conditions: Homo sapiens, Hep3B, 72 h, Table 4, repeated experiments, drug 10 μM, read-out: survival rate (viability) of cancer cells, Hep3B
Method in brief: as §1

MDA-MB231 = experiment: Cell viability analysis (WST-1), MDA-MB231; conditions: Homo sapiens, MDA-MB-231, 72 h, Table 4, repeated experiments, drug 10 μM, read-out: survival rate (viability) of cancer cells, MDA-MB231
NIH-OVCAR-3 = experiment: Cell viability analysis (WST-1), NIH-OVCAR-3; conditions: Homo sapiens, OVCAR-3, 72 h, Table 4, repeated experiments, drug 10 μM, read-out: survival rate (viability) of cancer cells, NIH-OVCAR-3
Method in brief: as §1

TOV-21G = experiment: Cell viability analysis (WST-1), TOV-21G; conditions: Homo sapiens, TOV21G, 72 h, Table 4, repeated experiments, drug 10 μM, read-out: survival rate (viability) of cancer cells, TOV-21G
Method in brief: as §1

SAS = experiment: Cell viability analysis (WST-1), SAS; conditions: 72 h, Table 4, repeated experiments, drug 10 μM, read-out: survival rate (viability) of cancer cells, SAS
Method in brief: as §1

U2OS = experiment: Cell viability analysis (WST-1), U2OS; conditions: Homo sapiens, U2OS, 72 h, Table 4, repeated experiments, drug 10 μM, read-out: survival rate (viability) of cancer cells, U2OS
Method in brief: as §1

BCC = experiment: Cell viability analysis (WST-1), BCC; conditions: BCC, 72 h, Table 4, repeated experiments, drug 10 μM, read-out: survival rate (viability) of cancer cells, BCC
cancer cell lines = experiment: Growth inhibitory effects on the panel of cancer cell lines; conditions: count of cancer cell lines inhibited; drug 10 μM, 72 hours

## CCC(C)(C)C(=O)O[C@H]1C[C@@H](C)C=C2C=C[C@H](C)[C@H](CC[C@@H]3C[C@@H](O)CC(=O)O3)[C@H]21 [Simvastatin (Zocor), Simvastatin]
[1]; Table 3, drug 10 μM, WST-1, OD450 nm, lower viability = better inhibition, read-out: survival rate (viability) of cancer cells, A375
  viability at 10 µM: 114%
[1]; Table 4, repeated experiments, drug 10 μM, WST-1, read-out: survival rate (viability) of cancer cells, A375
  viability at 10 µM: 78.6%
[2]; Table 3, drug 10 μM, WST-1, OD450 nm, read-out: survival rate (viability) of cancer cells, HCT116 (WT)
  viability at 10 µM: 124%
[2]; Table 4, repeated experiments, drug 10 μM, WST-1, read-out: survival rate (viability) of cancer cells, HCT116
  viability at 10 µM: 83.2%
[3]; Table 3, drug 10 μM, WST-1, OD450 nm, read-out: survival rate (viability) of cancer cells, HepG2
  viability at 10 µM: 113%
[3]; Table 4, repeated experiments, drug 10 μM, WST-1, read-out: survival rate (viability) of cancer cells, HepG2
  viability at 10 µM: 124%
[4]; Table 3, drug 10 μM, WST-1, OD450 nm, read-out: survival rate (viability) of cancer cells, HeLa
  viability at 10 µM: 104%
[4]; Table 4, repeated experiments, drug 10 μM, WST-1, read-out: survival rate (viability) of cancer cells, HeLa
  viability at 10 µM: 100%
[5]; Table 3, drug 10 μM, WST-1, OD450 nm, read-out: survival rate (viability) of cancer cells, AGS
  viability at 10 µM: 85.6%
[5]; Table 4, repeated experiments, drug 10 μM, WST-1, read-out: survival rate (viability) of cancer cells, AGS
  viability at 10 µM: 81%
[6]; Table 3, drug 10 μM, WST-1, OD450 nm, read-out: survival rate (viability) of cancer cells, H1650
  viability at 10 µM: 115%
[6]; Table 4, repeated experiments, drug 10 μM, WST-1, read-out: survival rate (viability) of cancer cells, H1650
  viability at 10 µM: 79.8%
[7]; Table 3, drug 10 μM, WST-1, OD450 nm, read-out: survival rate (viability) of cancer cells, MKN-45
  viability at 10 µM: 79.4%
[7]; Table 4, repeated experiments, drug 10 μM, WST-1, read-out: survival rate (viability) of cancer cells, MKN-45
  viability at 10 µM: 92.6%
[8]
  viability at 10 µM: 106%
[9]; Table 3, drug 10 μM, WST-1, OD450 nm, read-out: survival rate (viability) of cancer cells, A549
  viability at 10 µM: 126%
[9]; Table 4, repeated experiments, drug 10 μM, WST-1, read-out: survival rate (viability) of cancer cells, A549
  viability at 10 µM: 110%
[10]; Table 3, drug 10 μM, WST-1, OD450 nm, read-out: survival rate (viability) of cancer cells, LoVo
  viability at 10 µM: 99.9%
[10]; Table 4, repeated experiments, drug 10 μM, WST-1, read-out: survival rate (viability) of cancer cells, LoVo
  viability at 10 µM: 89.3%
T24
  viability at 10 µM: 89.6%
Hep3B
  viability at 10 µM: 114%
MDA-MB231
  viability at 10 µM: 71.1%
NIH-OVCAR-3
  viability at 10 µM: 98.4%
TOV-21G
  viability at 10 µM: 63.6%
SAS
  viability at 10 µM: 83.9%
U2OS
  viability at 10 µM: 65.6%
BCC
  viability at 10 µM: 57.4%
Cancer cell lines
  Numbers of inhibitory effect on cancer cell line: 0
